Measured values from US20100069476A1, “COMPOSITIONS AND METHODS FOR REDUCTION OF CUTANEOUS PHOTOAGEING” (MITSUI NORIN CO., LTD, priority 2005, published 2010).

Assays:
[1] = test system: MMP-2, MMP-3, MMP-7 and MMP-9; assay: UVB-induced expression of matrix metalloproteinases by western blot; type: in vivo, mice; details: EGCG about 1 mg/cm^2, ascorbic acid about 0.5 mg/cm^2, topical
Description: 4. Matrix metalloproteinases, like MMP-2, MMP-3, MMP-7 and MMP-9 which play a major role in degradation of extracellular matrix of the skin and leads to skin aging or wrinkle formation.
(§1) Hydrophilic cream was used as a vehicle.
Most matrix proteins provide tensile strength to the skin, and are therefore thought to be associated with photoageing and/or wrinkling of skin. We previously reported that chronic exposure of skin to UVB induces the up-regulation of several MMP, particularly, MMP-2, MMP-3, MMP-7 and MMP-9. […] The blots were stripped and re-probed for β-actin antibody to verify equal protein loading and equal transfer of proteins from gel to membrane.

[2] = test system: UV-induced markers of oxidative stress; assay: UV-induced markers of oxidative stress and skin appearance, UVB one month on alternate days; type: in vivo, mice
Description: In another exemplary treatment, mice were exposed to UVB (90 mJ/cm^2) for a period of one month on alternate days with or without polyphenone E in the drinking water (0.2%, w/v). Remarkably, this protocol inhibited UV-induced markers of oxidative stress, however, to a lesser extent than topical treatment.

[3] = test system: UVB-induced adverse effects in the skin; assay: Preliminary dose-dependent efficacy against UVB-induced adverse effects in the skin; type: in vivo, mice; details: topical 1 mg EGCG/cm^2 skin area, preliminary studies
Description: (§2) SKH-1 hairless mice were used at an age of between 6-8 weeks. The mice were UVB exposed (90 mJ/cm^2) for two months on alternate days for the present photoageing model. At the termination of the experiment, mice were sacrificed 24 hr after the last UV exposure, skin biopsies were collected for analyzing various parameters.
Ascorbic acid and EGCG (or polyphenon E) were dissolved at various concentrations in a hydrophilic cream and were topically applied on the mouse skin 25-30 min before each exposure of UVB. In preliminary studies, we tested the efficacy of AA and EGCG dose-dependently against UVB-induced adverse effects in the skin.

H2O2 = assay: Intracellular release of H2O2 in skin cells after UVB (dihydrorhodamine 123), topical treatment; type: in vivo, mice; details: for effect on UVB-induced H2O2 production in cells: EGCG about 1 mg/cm^2, ascorbic acid about 0.5 mg/cm^2, topical; for H2O2 production in skin cells, control experiments without UVB: topical treatment individually
Description: 2. Hydrogen peroxide production as a marker of oxidative stress.
as §1
After UVB exposure, a single cell suspension from the epidermis and dermis was prepared following procedures well known in the art. H2O2 was assayed using dihydrorhodamine 123 as a fluorescent dye probe. […] Treatment with ascorbic acid and EGCG inhibited UVB-induced H2O2 production in cells.

[4] = test system: oxidation of proteins in the skin; assay: UVB-induced oxidation of proteins in the skin (protein carbonyl formation, OxyBlot western blot); type: in vivo, mice; details: EGCG about 1 mg/cm^2, ascorbic acid about 0.5 mg/cm^2, topical
Description: as §1
FIG. 4 depicts a western blot analysis using antibodies against carbonyl-containing proteins. Protein oxidation was determined following western blot analysis by using OxyBlot Protein Oxidation Detection kit (Intergen Company, Purchase, N.Y.).

SKH-1 hairless mice = details: for prevention of UVB-induced skin damage as measured by the bi-fold thickness test: topical at optimum dosages (AA 0.5 mg/cm^2, EGCG 1 mg/cm^2), UVB 90 mJ/cm^2 two months on alternate days
Description: as §2
Ascorbic acid and EGCG (or polyphenon E) were dissolved at various concentrations in a hydrophilic cream and were topically applied on the mouse skin 25-30 min before each exposure of UVB. […] Therefore, to evaluate the anti-photoaging effects, we used this dose in all the experiments performed.
Bi-fold skin thickness of the UV exposed skin site with or without the treatment of ascorbic acid (AA) and EGCG.
Control experiments were performed to verify skin damage due to UVB exposure at the above dosage regimen. […] In the below experiments, mice were irradiated to UVB (90 mJ/cm^2) for two months on alternate days to effect photoageing of the skin. Mice were topically treated either with AA, EGCG or a combination of AA (unless indicated otherwise at 0.5 mg EGCG/cm^2 skin area) and EGCG (unless indicated otherwise at 1 mg EGCG/cm^2 skin area) before each exposure of the UVB to determine the photoprotective effect of these agents. Hydrophilic cream was used as a vehicle. UVB alone irradiated mice (control) were topically treated with vehicle only before UVB exposure.
Therefore, and based on these findings, dosages of ascorbic acid for selected experiments were maintained at about or below 0.5 mg/cm^2.
To determine if the effect was additive or synergistic, ascorbic acid and EGCG were topically used at the above determined optimum dosages.

TIMP = assay: Expression of tissue inhibitor of matrix metalloproteinase in UVB exposed skin; type: in vivo, mice; details: topical
Description: 5. Tissue inhibitor of matrix metalloproteinase (TIMP).
Most matrix proteins provide tensile strength to the skin, and are therefore thought to be associated with photoageing and/or wrinkling of skin. […] The blots were stripped and re-probed for β-actin antibody to verify equal protein loading and equal transfer of proteins from gel to membrane.

Compound	effect on UVB-induced expression of selected MMP [1]	chemopreventive efficacy, compared ([2]; UVB 90 mJ/cm^2 one month on alternate days)	skin appearance in comparison to UV alone exposed skin sites ([2]; plus UV exposed mice)	chemopreventive effects against UVB radiation [3]	effect on UVB-induced H2O2 production in cells (H2O2)	H2O2 production in skin cells, control experiments without UVB (H2O2)	effect on UVB-induced oxidation of proteins [4]	prevention of UVB-induced skin damage as measured by the bi-fold thickness test (SKH-1 hairless mice)	dosage up to which photoprotection increased (bi-fold thickness test) (SKH-1 hairless mice; topical, little or no further beneficial effect at increasing dosages)	expression of TIMP (TIMP)	inflammatory reaction of skin (SKH-1 hairless mice; topical doses substantially above 0.5 mg/cm^2 of skin)	optimum dosage (protection measured by bi-fold skin thickness) (SKH-1 hairless mice; topical, data not shown)
O=C(O[C@@H]1Cc2c(O)cc(O)cc2O[C@@H]1c1cc(O)c(O)c(O)c1)c1cc(O)c(O)c(O)c1 [EGCG, epigallocatechin gallate]	inhibited UVB-induced expression of selected MMP to at least some degree	superior to polyphenone E	relatively better	significant chemopreventive effects	inhibited	did not induce H2O2 production	inhibited UVB-induced oxidation of proteins to some degree	substantially less protection	about 1.0 mg/cm^2	up-regulated	–	–
O=C1O[C@H]([C@@H](O)CO)C(O)=C1O [ascorbic acid]	inhibited UVB-induced expression of selected MMP to at least some degree	–	–	–	inhibited	did not induce H2O2 production	inhibited UVB-induced oxidation of proteins to some degree	substantially less protection	–	up-regulated	tended to provoke an inflammatory reaction	about 0.5 mg/cm^2
